The target in one test is T1, B. subtilis DnaN (Bacillus subtilis, UniProt P05649).
T1 sequence (P05649 1-378): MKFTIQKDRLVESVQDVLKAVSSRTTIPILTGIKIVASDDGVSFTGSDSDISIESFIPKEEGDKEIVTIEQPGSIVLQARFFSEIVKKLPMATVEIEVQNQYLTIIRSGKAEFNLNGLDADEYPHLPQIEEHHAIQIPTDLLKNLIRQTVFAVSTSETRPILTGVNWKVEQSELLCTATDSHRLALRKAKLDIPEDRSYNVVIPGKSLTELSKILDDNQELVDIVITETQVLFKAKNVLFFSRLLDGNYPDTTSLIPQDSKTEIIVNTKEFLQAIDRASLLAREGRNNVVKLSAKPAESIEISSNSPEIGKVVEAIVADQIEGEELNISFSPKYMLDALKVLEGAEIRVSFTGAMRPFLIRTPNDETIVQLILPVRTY
It counts as binding.

In another test the test system is E. coli clamp. Conditions: cited from earlier work.
In a further test the test system is viability. Conditions: some effects on DNA damage response and mutagenesis; cited from earlier work.

“Also recorded” adds a separate entry of the source.

For the substance FAM-Ahx-DDAMGLALDE-NH2, the “binding (FP response)” value at B. subtilis DnaN (pH 7.5) is listed as “lack of binding; also recorded: deficient in clamp binding in FP assays”.

Regarding QLSLF, the “affinity class in words” value on B. subtilis DnaN is given as “only micromolar affinity”; in the test with E. coli clamp it was “submicromolar affinity”.

As for QLSLPL [εL], the effect on viability result in the test on viability was “no effect on viability”.

For the substance ATSMAF [εQ], in the test with viability, the effect on viability entry is on record as “no effect on viability”.
